In ChEMBL document CHEMBL1201862, “PubChem BioAssay data set” (2004):
The source made the active and inactive calls.

What was measured:
[1] = biological target: Prothrombin (Homo sapiens, UniProt P00734); experiment: Thrombin 1536 HTS Dose Response Confirmation. [Related pubchem assays: 1046 (Thrombin 1536 HTS; hits were confirmed in this assay)]; format: functional
[2] = biological target: T1, Neuropeptides B/W receptor type 1 (Homo sapiens, UniProt P48145); experiment: Fluorescence-based dose response cell-based high throughput screening assay to identify antagonists of the G-protein coupled receptor 7 (GPR7). [Related pubchem assays: 1952 (Screening assay (GPR7 antagonists).), 1880 (Summary AID.)]; format: functional
T1 sequence (P48145 whole entry): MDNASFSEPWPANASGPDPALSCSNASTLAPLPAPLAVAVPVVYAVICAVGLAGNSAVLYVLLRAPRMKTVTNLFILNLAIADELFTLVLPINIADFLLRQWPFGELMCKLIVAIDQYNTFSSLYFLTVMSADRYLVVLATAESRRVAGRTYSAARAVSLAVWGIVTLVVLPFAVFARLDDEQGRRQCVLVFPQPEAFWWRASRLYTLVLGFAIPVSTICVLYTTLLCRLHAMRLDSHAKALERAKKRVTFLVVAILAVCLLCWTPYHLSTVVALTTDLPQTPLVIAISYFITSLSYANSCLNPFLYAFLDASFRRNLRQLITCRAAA

[3] = biological target: Melanin-concentrating hormone receptor 1 (Homo sapiens, UniProt Q99705); experiment: Fluorescence-based counterscreen for antagonists of the G-protein coupled receptor 7 (GPR7): cell-based high throughput dose response assay to identify antagonists of the melanin-concentrating hormone receptor 1 (MCHR1).; format: functional
Melanin-concentrating hormone receptor 1, sequence (Q99705 whole entry, the tested form may be a part): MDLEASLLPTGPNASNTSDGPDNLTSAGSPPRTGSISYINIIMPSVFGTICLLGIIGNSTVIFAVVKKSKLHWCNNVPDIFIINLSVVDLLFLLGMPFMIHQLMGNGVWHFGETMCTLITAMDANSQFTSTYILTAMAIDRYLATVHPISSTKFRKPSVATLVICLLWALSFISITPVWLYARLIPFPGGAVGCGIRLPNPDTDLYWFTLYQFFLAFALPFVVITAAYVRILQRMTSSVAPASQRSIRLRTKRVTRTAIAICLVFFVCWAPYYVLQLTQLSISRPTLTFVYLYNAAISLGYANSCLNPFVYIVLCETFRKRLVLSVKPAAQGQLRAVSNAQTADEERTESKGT

[4] = biological target: T2, Carboxy-terminal domain RNA polymerase II polypeptide A small phosphatase 1 (Homo sapiens, UniProt Q9GZU7); experiment: inhibitors of CTDSP1, concentration-response testing, biochemical assay, absorbance-based, actives from ultra-high-throughput screening (AID 540297); format: functional
T2 sequence (Q9GZU7 whole entry): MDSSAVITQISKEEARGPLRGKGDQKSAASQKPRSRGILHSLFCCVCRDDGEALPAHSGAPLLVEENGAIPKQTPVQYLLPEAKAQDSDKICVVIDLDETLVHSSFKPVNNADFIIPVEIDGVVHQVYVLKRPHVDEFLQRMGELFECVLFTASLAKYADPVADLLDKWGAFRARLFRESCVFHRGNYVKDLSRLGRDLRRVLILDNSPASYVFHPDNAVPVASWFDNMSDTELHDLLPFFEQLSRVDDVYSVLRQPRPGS

[5] = inhibitors of intracellular T. cruzi replication, confirmation, NIH3T3 host cells, beta-gal luminescence (AID 2044); format: functional, cell-based;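 also: intracellular parasites grown in NIH/3T3 mouse fibroblasts as host cells; luminescent beta-galactosidase reporter signal from transgenic T. cruzi replicating inside host cells; inhibitors lower the luminescence signal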
[6] = cytotoxicity toward NIH3T3 fibroblasts, dose response, counter-screen, cell-based, ATP luminescence, mouse fibroblasts (AID 2010); format: functional;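 also: cells exposed to compound for about 90 hours before reading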
[7] = cells
[8] = biological target: T3, RNA-binding protein pos-1 (Caenorhabditis elegans, UniProt G5EF15); experiment: inhibitors of POS-1/mex-3 RNA binding, dose response, biochemical, fluorescence polarization (AID 1964);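 also: purified POS-1 fused to maltose binding protein made in E. coli; potency of compounds blocking POS-1 binding to fluorescent RNA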
T3 sequence (G5EF15 whole entry): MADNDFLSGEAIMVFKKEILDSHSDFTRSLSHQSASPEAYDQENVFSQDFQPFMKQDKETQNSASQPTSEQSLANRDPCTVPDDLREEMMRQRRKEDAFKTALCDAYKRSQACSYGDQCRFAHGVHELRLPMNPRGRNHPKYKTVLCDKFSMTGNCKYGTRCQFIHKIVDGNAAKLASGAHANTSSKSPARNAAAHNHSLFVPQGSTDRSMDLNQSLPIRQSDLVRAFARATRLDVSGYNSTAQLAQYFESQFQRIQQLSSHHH

[9] = biological target: T4, Zinc finger protein mex-5 (Caenorhabditis elegans, UniProt Q9XUB2); experiment: MEX-5/TCR-2 RNA interaction inhibitors, dose response, biochemical, C. elegans, fluorescence polarization (AID 1960)
T4 sequence (Q9XUB2 whole entry): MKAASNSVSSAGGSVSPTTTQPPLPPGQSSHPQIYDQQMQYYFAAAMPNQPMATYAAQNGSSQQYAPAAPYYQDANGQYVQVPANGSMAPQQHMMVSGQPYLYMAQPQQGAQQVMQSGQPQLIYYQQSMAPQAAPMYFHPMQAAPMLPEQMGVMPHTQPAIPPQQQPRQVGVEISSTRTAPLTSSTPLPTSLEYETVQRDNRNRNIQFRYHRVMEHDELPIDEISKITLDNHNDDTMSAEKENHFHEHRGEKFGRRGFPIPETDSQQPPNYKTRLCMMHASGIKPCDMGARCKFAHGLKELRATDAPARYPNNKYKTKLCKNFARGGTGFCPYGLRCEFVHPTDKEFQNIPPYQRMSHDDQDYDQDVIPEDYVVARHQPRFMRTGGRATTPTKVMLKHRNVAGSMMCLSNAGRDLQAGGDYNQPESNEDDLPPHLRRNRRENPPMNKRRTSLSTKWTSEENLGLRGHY

[10] = biological target: T5, Induced myeloid leukemia cell differentiation protein Mcl-1 (Homo sapiens, UniProt Q07820); experiment: MCL1-BIM BH3 interaction inhibitors, dose response, biochemical, fluorescence polarization, BIM-BH3 peptide, 1536-well (AID 2217)
T5 sequence (Q07820 whole entry): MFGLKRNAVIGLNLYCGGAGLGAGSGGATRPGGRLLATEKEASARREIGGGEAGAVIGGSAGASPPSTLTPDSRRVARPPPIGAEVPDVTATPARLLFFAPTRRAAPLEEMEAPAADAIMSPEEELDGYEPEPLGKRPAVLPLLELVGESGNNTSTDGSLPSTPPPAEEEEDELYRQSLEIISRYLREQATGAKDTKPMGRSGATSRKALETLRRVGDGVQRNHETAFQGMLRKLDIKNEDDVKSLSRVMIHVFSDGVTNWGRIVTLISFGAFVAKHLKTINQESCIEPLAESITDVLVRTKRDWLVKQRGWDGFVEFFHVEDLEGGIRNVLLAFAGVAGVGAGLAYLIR

[11] = biological target: Bcl-2-like protein 1 (Homo sapiens, UniProt Q07817); experiment: BCL-XL inhibitors, dose response, selectivity assay for MCL1 inhibitor project, biochemical, fluorescence polarization, 1536-well (AID 2218)
[12] = biological target: T5, Induced myeloid leukemia cell differentiation protein Mcl-1; format: functional
[13] = biological target: Glucose-6-phosphate 1-dehydrogenase (Homo sapiens, UniProt P11413); experiment: human G6PD enzyme inhibitors, dose response, selectivity assay for P. falciparum G6PD inhibitor project, biochemical, fluorescence (AID 504792); format: functional
[14] = system: Vero; experiment: Vero cell cytotoxicity, cytotoxicity control for flavivirus capping enzyme inhibitors (AID 588742); format: functional; settings: Chlorocebus sabaeus
[15] = biological target: Genome polyprotein (dengue virus type 2, UniProt P29990); experiment: Dengue-2 NS5 methyltransferase inhibitors, primary screen, biochemical, confirmation dose response (AID 588689); format: functional
[16] = human group III sPLA2 inhibitors, dose response, biochemical, QFRET, IC50 (AID 743457);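 also: green fluorescence rise as the enzyme cleaves BODIPY PC-A2 in liposomes; potency for inhibition of the enzyme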
[17] = HepG2 cell cytotoxicity, dose response, cytotoxicity control, ATP luminescence, cherry-pick, activator set 2 (AID 1053143); format: functional, cell-based
[18] = THP-1 cell cytotoxicity, dose response, cytotoxicity control for Vif-APOBEC3G degradation inhibitor project, THP-1 cells (AID 1117359); format: functional; settings: Human immunodeficiency virus 1, THP-1
[19] = biological target: Voltage-gated inwardly rectifying potassium channel KCNH2 (Homo sapiens, UniProt Q12809); experiment: hERG protection from proarrhythmic block, potency, dose response, cell-based, thallium flux (AID 2121); format: ADME
Voltage-gated inwardly rectifying potassium channel KCNH2, sequence (Q12809 whole entry): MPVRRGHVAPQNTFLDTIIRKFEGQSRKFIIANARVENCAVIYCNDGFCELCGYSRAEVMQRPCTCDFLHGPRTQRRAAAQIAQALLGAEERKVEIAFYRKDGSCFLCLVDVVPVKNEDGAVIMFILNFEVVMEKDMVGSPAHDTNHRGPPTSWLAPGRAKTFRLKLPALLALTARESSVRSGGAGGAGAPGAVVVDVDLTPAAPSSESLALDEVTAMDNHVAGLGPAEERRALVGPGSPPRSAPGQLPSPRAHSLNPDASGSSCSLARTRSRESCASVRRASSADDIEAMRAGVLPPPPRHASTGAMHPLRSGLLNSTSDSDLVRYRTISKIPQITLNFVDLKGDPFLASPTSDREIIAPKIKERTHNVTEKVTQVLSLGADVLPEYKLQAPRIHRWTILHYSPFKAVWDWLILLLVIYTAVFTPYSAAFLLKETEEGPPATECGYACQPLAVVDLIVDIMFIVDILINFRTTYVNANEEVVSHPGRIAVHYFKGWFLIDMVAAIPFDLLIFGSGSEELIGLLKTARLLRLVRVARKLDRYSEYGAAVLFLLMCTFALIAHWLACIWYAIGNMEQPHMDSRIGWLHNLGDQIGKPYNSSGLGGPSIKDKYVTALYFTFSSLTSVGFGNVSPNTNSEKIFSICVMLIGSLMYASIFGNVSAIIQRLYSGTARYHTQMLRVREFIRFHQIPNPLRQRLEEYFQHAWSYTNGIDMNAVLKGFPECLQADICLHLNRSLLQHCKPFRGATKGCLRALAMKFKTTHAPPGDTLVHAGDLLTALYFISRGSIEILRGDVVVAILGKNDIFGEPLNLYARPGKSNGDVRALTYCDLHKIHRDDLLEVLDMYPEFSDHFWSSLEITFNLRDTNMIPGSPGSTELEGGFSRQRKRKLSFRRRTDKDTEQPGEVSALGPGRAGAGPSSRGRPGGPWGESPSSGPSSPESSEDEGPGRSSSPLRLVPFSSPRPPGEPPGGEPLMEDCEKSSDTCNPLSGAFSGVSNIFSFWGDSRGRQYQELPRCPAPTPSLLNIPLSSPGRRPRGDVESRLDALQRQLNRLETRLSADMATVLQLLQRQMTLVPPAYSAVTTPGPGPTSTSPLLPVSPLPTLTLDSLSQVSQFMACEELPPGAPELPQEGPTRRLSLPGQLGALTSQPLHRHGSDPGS

[20] = enhancers of respiration in Yfh1-depleted yeast, dose response, Friedreich's ataxia, plus single-dose screen (AID 1465); format: functional;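 also: yeast depleted of Yfh1p frataxin homolog grown on glycerol needing respiration; WST-1 tetrazolium dye reduction as measure of cellular dehydrogenase metabolic activity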
[21] = biological target: Peroxisome proliferator-activated receptor gamma/Nuclear receptor corepressor 2 (Homo sapiens, UniProt P37231+Q9Y618); experiment: Counterscreen for NR2E3 inverse agonists: TR-FRET-based biochemical high throughput dose response assay to identify inverse agonists of the interaction between peroxisome proliferator-activated receptor gamma (PPARg) and nuclear receptor co-repressor 2 (NCOR2).; format: functional
Peroxisome proliferator-activated receptor gamma/Nuclear receptor corepressor 2, sequence (P37231 whole entry): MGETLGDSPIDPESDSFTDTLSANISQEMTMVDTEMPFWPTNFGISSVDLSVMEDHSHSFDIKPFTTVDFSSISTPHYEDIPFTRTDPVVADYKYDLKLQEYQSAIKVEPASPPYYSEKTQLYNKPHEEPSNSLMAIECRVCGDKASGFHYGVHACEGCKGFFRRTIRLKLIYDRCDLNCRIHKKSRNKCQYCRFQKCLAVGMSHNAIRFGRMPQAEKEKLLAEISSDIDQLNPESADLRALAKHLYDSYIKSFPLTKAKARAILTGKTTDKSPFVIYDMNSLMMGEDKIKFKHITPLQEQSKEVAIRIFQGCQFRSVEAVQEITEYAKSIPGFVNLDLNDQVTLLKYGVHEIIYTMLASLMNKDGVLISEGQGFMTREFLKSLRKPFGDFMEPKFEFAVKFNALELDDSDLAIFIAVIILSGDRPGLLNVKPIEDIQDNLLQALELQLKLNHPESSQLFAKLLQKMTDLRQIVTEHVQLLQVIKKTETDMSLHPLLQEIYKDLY
Peroxisome proliferator-activated receptor gamma/Nuclear receptor corepressor 2, sequence (Q9Y618 whole entry): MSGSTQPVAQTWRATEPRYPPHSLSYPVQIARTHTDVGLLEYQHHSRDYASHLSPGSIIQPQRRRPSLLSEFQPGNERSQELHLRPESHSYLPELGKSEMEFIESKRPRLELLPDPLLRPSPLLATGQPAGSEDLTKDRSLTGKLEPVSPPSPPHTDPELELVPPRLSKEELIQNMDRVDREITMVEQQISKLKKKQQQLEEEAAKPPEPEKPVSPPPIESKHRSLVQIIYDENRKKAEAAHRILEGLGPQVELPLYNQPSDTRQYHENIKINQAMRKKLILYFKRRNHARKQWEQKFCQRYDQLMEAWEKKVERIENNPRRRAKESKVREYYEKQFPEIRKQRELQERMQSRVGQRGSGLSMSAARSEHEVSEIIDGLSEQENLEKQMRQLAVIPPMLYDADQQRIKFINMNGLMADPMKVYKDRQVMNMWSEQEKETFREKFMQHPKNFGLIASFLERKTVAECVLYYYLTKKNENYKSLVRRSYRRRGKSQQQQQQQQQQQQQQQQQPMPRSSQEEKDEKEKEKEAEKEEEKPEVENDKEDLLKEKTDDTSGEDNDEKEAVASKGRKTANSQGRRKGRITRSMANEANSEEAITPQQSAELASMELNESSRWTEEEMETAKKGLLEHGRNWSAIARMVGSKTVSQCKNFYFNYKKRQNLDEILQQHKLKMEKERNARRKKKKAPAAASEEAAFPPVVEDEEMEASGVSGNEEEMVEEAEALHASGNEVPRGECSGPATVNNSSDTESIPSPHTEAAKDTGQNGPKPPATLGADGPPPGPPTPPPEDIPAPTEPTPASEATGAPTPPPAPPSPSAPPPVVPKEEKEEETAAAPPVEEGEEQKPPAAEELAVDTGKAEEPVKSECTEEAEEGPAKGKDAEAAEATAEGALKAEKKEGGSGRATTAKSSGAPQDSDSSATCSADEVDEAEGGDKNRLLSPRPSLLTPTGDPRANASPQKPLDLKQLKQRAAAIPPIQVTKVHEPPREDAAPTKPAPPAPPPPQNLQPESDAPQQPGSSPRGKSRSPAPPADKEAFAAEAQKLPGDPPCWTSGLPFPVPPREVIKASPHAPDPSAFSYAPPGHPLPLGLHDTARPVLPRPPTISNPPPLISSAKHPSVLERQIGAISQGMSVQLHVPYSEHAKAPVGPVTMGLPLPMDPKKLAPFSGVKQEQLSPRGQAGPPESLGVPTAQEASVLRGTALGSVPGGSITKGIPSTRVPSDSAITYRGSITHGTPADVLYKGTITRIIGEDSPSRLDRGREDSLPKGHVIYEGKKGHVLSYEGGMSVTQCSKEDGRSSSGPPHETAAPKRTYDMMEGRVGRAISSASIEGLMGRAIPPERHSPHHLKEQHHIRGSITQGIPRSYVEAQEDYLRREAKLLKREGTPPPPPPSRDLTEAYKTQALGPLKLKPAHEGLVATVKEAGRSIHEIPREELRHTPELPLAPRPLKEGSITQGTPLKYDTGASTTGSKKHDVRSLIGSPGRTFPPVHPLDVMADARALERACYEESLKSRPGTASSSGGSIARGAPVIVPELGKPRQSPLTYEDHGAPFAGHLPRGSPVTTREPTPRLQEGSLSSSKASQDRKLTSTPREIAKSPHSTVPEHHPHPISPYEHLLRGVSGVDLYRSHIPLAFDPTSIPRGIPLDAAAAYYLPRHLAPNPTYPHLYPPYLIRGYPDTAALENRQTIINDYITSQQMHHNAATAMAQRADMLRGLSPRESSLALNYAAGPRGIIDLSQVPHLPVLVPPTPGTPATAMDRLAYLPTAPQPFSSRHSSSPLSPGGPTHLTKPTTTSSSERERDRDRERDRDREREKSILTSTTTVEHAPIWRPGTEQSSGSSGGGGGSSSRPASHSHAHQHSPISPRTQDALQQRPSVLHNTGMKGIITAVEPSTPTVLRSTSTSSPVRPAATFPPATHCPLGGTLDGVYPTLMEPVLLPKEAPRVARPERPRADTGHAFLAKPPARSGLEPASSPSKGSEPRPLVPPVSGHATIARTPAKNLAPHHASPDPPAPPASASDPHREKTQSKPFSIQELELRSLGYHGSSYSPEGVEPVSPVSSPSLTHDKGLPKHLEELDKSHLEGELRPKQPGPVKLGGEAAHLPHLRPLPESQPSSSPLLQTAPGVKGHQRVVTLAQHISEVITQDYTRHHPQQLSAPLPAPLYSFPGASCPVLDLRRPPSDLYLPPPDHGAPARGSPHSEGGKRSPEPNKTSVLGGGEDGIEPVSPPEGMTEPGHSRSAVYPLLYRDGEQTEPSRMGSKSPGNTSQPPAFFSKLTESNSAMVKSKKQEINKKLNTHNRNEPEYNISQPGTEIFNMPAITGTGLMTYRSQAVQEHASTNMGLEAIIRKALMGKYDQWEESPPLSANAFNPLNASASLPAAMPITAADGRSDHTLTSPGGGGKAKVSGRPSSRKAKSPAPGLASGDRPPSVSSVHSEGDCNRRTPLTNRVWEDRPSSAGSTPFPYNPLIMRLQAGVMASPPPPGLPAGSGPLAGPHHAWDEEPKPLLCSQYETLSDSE

[22] = biological target: Photoreceptor-specific nuclear receptor (Homo sapiens, UniProt Q9Y5X4); experiment: NR2E3 inverse agonists, dose response, biochemical, TR-FRET (AID 463256); format: functional
[23] = inhibitors of firefly luciferase expression or activity, dose response, H4 neuroglioma cells, luminescence (AID 1990); format: functional, cell-based
[24] = luciferase reporter signal reduction – luminescence, H4-C neuroglioblastoma cells, dose response (AID 2458); format: functional, cell-based;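 also: H4 neuroglioblastoma cells stably carrying a luciferase reporter gene fusion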
[25] = system: BJ; experiment: cytotoxicity toward BJ-TERT fibroblasts, dose response, cell-based, RAS-independent, luminescence (AID 1933); format: functional; settings: Homo sapiens
[26] = cells; format: functional, cell-based
[27] = Luminescence Cell-Based Dose Response HTS to Identify Inhibitors of 5'UTR Stem-Loop Driven Prion Protein mRNA Translation in H4 Neuroglioblastoma Cells. [Related pubchem assays: 1827 (Project Summary), 1813 (Primary HTS)]; format: functional
[28] = inhibitors of SNCA 5'UTR-driven reporter translation, confirmation, H4 neuroglioma cells, luminescence (AID 1988); format: functional, cell-based
[29] = system: BJ; experiment: cells; format: functional, cell-based; settings: Homo sapiens
[30] = system: BJ; experiment: cytotoxicity toward BJ-TERT-LT-ST fibroblasts, dose response, cell-based, RAS-independent, luminescence (AID 1935); format: functional; settings: Homo sapiens;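 also: BJ fibroblasts immortalized with TERT plus LT and ST oncogenes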
[31] = cytotoxicity toward DRD oncogenic fibroblasts, dose response, cell-based, non-viral oncogenic, luminescence (AID 1934); format: functional; settings: Homo sapiens
[32] = inhibitors of SNCA 5'UTR-driven translation, confirmation, luminescence, H4 neuroglioblastoma cells, dose confirmation (AID 2454); format: functional, cell-based;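 also: H4 neuroglioblastoma cells carrying an alpha-synuclein 5'UTR luciferase reporter; potency for inhibition of the luciferase signal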
[33] = cytotoxicity in HEK-293T cells, dose response, cytotoxicity control for TCR NF-kB inhibitor project, luminescence, T-cell screen hits (AID 489026); format: functional, cell-based;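 also: cells exposed to compound about 14 hours before the viability readout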
[34] = system: BJ; experiment: cytotoxicity toward Ras-transformed BJeLR fibroblasts, dose response, cell-based, alamar blue fluorescence, cherrypicked samples (AID 2631); format: functional; settings: Homo sapiens;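 also: confirmatory dose-response assay in RAS-dependent BJ fibroblasts engineered with TERT, LT and ST, with cytotoxicity read by fluorescence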
[35] = biological target: T6, Fructose-bisphosphate aldolase (Mycobacterium tuberculosis, UniProt P9WQA3); experiment: Fluorescence-based biochemical high throughput dose response assay for inhibitors of the fructose-bisphosphate aldolase (FBA) of M. tuberculosis.; format: functional
T6 sequence (P9WQA3 whole entry): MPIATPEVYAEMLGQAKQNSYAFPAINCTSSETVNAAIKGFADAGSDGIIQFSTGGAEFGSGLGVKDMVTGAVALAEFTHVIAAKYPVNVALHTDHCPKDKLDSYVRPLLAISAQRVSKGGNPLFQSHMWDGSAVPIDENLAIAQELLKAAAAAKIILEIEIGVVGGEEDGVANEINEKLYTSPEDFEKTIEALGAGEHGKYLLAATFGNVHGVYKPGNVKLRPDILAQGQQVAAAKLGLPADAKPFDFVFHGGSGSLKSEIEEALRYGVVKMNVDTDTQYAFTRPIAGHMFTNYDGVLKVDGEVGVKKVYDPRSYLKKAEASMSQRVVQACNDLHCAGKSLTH

[36] = biological target: Heat shock protein HSP 90-alpha (Homo sapiens, UniProt P07900); experiment: Luminescence-based dose response biochemical high throughput screening assay for inhibitors of the Heat Shock Protein 90 (HSP90). [Related pubchem assays: 1831 (Summary AID.), 1846 (Confirmation screen.), 1789 (Primary screen.)]
[37] = biological target: FAD-linked sulfhydryl oxidase ALR (Homo sapiens, UniProt P55789); experiment: inhibitors of human ALR sulfhydryl oxidase, dose response, biochemical, H2O2 detection, luminescence, cherry-pick (AID 493248)
FAD-linked sulfhydryl oxidase ALR, sequence (P55789 whole entry): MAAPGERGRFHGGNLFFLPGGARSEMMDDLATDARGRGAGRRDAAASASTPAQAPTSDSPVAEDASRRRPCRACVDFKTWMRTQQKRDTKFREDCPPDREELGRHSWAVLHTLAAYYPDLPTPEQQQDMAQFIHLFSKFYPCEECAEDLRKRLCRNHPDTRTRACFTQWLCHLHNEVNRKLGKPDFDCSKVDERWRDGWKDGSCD

## CCC(=O)n1nc(-c2ccc(OC)cc2)nc1NCc1cccs1
[1]
  IC50: 1.48 µM (active)

## Cc1ccccc1NC(=O)Cn1nnc(S(=O)(=O)c2ccc(C(C)(C)C)cc2)c1N
[2]
  IC50: > 43.8 µM (not active)
[3]
  IC50: > 43.8 µM (not active)
[4]
  IC50: 7.74 µM (active)

## O=C(NCC(c1cccnc1)N1CCN(c2ccccc2)CC1)Oc1ccccc1 (stereo not drawn)
[5]
  EC50: < 0.1 µM (active)
[6]
  EC50: > 30 µM (not active)
[7]
  EC50: 0.052 µM (active)

## C=CC/N=c1\scc(-c2ccco2)n1/N=C/c1ccc(O)c(O)c1O
[8]
  EC50: 40.6 µM (active)
[9]
  EC50: 2.68 µM (active)
[10]
  IC50: 2.94 µM (active)
[11]
  IC50: > 109 µM (not active)
[12]
  IC50: 2.81 µM (not active)
[13]
  IC50: > 80 µM (inactive)
[14]
  CC50: 22.8 µM (active)
[15]
  IC50: 83.8 µM (active)
[16]
  IC50: 49.6 µM (inactive)
[17]
  AC50: 26 µM (active)
[18]
  CC50: > 40 µM (active)

## CCn1c(O)c(N=NC2=NC(=O)CS2)c2ccccc21
[19]
  EC50: 4.83 µM (active)

## O=C(NNc1nc2ccc(F)cc2s1)c1cccc(F)c1
[5]
  EC50: 3.84 µM (active)
[6]
  EC50: 6.48 µM (active)
[20]
  EC50: > 100 µM (active)

## O=C(Nc1ccc(-c2ccc3nncn3n2)cc1)c1ccc(Br)o1
[21]
  IC50: 4.01 µM (active)
[22]
  IC50: 3.62 µM (active)

## CCN(CC)c1ccc(NC(=S)NC(=O)c2cccs2)cc1
[19]
  EC50: 1.24 µM (active)

## N#Cc1ccc(-c2cccs2)nc1SCc1cccnc1
[23]
  EC50: 5.46 µM (active)
[24]
  EC50: 0.841 µM (active)
[25]
  EC50: 7.55 µM (inconclusive)
[26]
  EC50: 1.24 µM (active)
[27]
  EC50: 0.156 µM (active)
[28]
  EC50: < 0.1 µM (active)
[29]
  EC50: 15 µM (active)
[30]
  EC50: 3.66 µM (inconclusive)
[31]
  EC50: 11.5 µM (inconclusive)
[32]
  EC50: > 12 µM (not active)
[33]
  IC50: > 80 µM (inactive)
[34]
  EC50: 0.188 µM (active)
[35]
  IC50: > 1.11 µM (active)

## CN(C)CCCN(C(=O)COc1ccc(Cl)cc1)c1nc2cc3c(cc2s1)OCCO3
[5]
  EC50: < 0.1 µM (active)
[6]
  EC50: > 60 µM (not active)
[7]
  EC50: 0.069 µM (active)

## O=C(Nc1ccc(Cl)cc1)c1ccc(-c2ccccn2)s1
[21]
  IC50: 10.9 µM (not active)
[22]
  IC50: 8.84 µM (active)

## CCc1ccc(C2CC(c3ccccc3Cl)Nc3nc(N)nn32)cc1 (stereo not drawn)
[2]
  IC50: 5.58 µM (active)
[3]
  IC50: 19.6 µM (not active)

## COC(=O)c1nnc(NC(=O)c2ccc(F)cc2)[nH]1
[1]
  IC50: 0.297 µM (active)

## O=C(O)c1cccc(N2C(=O)/C(=C/c3nc4ccccc4[nH]3)SC2=S)c1
[36]
  IC50: 8.93 µM (active)
[37]
  AC50: 3.31 µM (active)
